For 27 molecules, IC50 results are on record in patent US11649255B2, “Indazoles as hematopoietic progenitor kinase 1 (HPK1) inhibitors and methods using same” (1st Biotherapeutics, Inc., priority 2020, dated 2023).

One may read the IC50 as the concentration needed to halve the response being measured.

Where only a bound is given, the exact number is not on record here.

Chain of recombinant human HPK1 (Q92918 whole entry): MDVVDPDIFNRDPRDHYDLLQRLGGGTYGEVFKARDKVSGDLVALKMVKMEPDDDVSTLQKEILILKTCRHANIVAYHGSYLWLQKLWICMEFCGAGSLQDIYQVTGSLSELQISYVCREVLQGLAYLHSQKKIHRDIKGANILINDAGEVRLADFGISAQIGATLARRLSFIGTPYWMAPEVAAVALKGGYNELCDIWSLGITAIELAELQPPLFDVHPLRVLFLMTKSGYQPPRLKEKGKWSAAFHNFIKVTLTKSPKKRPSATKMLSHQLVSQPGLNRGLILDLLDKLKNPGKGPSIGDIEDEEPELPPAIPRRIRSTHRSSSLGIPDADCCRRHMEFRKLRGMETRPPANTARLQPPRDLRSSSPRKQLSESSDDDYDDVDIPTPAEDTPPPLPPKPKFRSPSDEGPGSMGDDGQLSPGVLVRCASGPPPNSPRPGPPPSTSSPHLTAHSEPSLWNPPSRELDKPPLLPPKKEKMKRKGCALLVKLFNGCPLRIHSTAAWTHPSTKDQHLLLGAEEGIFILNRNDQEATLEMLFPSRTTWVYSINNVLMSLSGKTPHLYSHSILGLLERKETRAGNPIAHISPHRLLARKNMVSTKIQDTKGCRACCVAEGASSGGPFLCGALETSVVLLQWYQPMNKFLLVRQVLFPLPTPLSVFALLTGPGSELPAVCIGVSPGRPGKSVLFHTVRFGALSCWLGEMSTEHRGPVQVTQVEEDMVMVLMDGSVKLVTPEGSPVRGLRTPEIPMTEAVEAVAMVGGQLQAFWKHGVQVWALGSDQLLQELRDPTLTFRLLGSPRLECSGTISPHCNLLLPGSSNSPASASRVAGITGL

For the experiment, the target named is recombinant human HPK1 (Homo sapiens (Human), UniProt Q92918). Put plainly: HPK1 kinase assay (ADP-Glo). Type of experiment: biochemical. To be noted: 25 μM ATP, MBP substrate. The procedure:
HPK1 kinase activity was measured by Promega's ADP-Glo™ kinase assay. In this assay, 5 ng of recombinant human HPK1 (signalchem) is incubated with 5 μL of compounds (0.5% DMSO), 5 μL of MBP (0.5 μg/μl) and 5 μL of ATP (25 μM) in buffer (40 mM Tris, 7.5; 20 mM MgCl2; 0.1 mg/ml BSA; 5 μM DTT). The assay was started by incubating the reaction mixture in a 96-well plate at 30′ C for 40 minutes. After the incubation, 25 uL ADP-Glo reagent was added and the reaction was incubated at room temperature for 40-min to stop the reaction and degrade residual ATP. The ADP product was then converted to ATP by adding 50 uL per well of detection reagent. Luminescence was detected after 30-min room temperature incubation with the Molecular device I3X plate reader. The IC50 values were calculated from a series of percent inhibition values determined at a range of inhibitor concentration using software routines as implemented in the GraphPad Prism 7 software and SigmaPlot13.0.
(In ADP-Glo the light output rises with the ADP produced.)
For `Cc1noc(-c2c(F)c(Cl)c(-c3ccc4nc(NC(=O)[C@@H]5C[C@@H]5F)cn4c3)c3cn[nH]c23)n1` [Example 364, (1S,2S)-N-(6-(5-chloro-6-fluoro-7-(3-methyl-1,2,4-oxadiazol-5-yl)-1H-indazol-4-yl)imidazo[1,2-a]pyridin-2-yl)-2-fluorocyclopropane-1-carboxamide], the IC50 is under 100 nM.
Consider `Cc1ccc2[nH]ncc2c1-c1ccc2nc(NC(=O)C3CCCC3)sc2c1` [Example 10, N-(6-(5-methyl-1H-indazol-4-yl)benzo[d]thiazol-2-yl)cyclopentanecarboxamide], for which the IC50 was over 1000 nM.
`O=C(Nc1cn2cc(-c3c(Cl)c(F)c(C4CCCC4O)c4[nH]ncc34)ccc2n1)[C@@H]1C[C@@H]1F` (stereo partly drawn) [Example 410, (1S,2S)-N-(6-(5-chloro-6-fluoro-7-(2-hydroxycyclopentyl)-1H-indazol-4-yl)imidazo[1,2-a]pyridin-2-yl)-2-fluorocyclopropane-1-carboxamide]: the IC50 is under 100 nM.
Consider `O=C(Nc1nc2ccc(-c3c(Cl)c(F)c(N4CCOCC4)c4[nH]ncc34)cc2s1)[C@@H]1C[C@@H]1F` [Example 74, (1S,2S)-N-(6-(5-chloro-6-fluoro-7-morpholino-1H-indazol-4-yl)benzo[d]thiazol-2-yl)-2-fluorocyclopropane-1-carboxamide], for which the IC50 fell in the range of 101 to 500 nM.
Under `O=C(Nc1cn2cc(-c3c(Cl)c(F)c(Cl)c4[nH]ncc34)ccc2n1)[C@@H]1C[C@@H]1F` [Example 256, (1S,2S)-N-(6-(5,7-dichloro-6-fluoro-1H-indazol-4-yl)imidazo[1,2-a]pyridin-2-yl)-2-fluorocyclopropane-1-carboxamide] stands under 100 nM; under `C#Cc1ccc2[nH]ncc2c1-c1ccc2nc(NC(=O)[C@@H]3C[C@@H]3F)sc2c1` [Example 39, (1S,2S)-N-(6-(5-ethynyl-1H-indazol-4-yl)benzo[d]thiazol-2-yl)-2-fluorocyclopropane-1-carboxamide], 101 to 500 nM.
Turning to `CCC(=O)NC(C)c1c(F)c(Cl)c(-c2ccn3nc(NC(=O)[C@@H]4C[C@@H]4F)cc3c2)c2cn[nH]c12` (stereo partly drawn) [Example 660, (1S,2S)-N-(5-(5-chloro-6-fluoro-7-(1-propionamidoethyl)-1H-indazol-4-yl)pyrazolo[1,5-a]pyridin-2-yl)-2-fluorocyclopropane-1-carboxamide], the IC50 is under 100 nM.
On to `O=C(Nc1cn2cc(-c3c(Cl)c(F)c(Cn4ccnn4)c4[nH]ncc34)ccc2n1)[C@@H]1C[C@@H]1F` [Example 384, (1S,2S)-N-(6-(7-((1H-1,2,3-triazol-1-yl)methyl)-5-chloro-6-fluoro-1H-indazol-4-yl)imidazo[1,2-a]pyridin-2-yl)-2-fluorocyclopropane-1-carboxamide], for which the IC50 is under 100 nM.
For `O=C(Nc1nc2ccc(-c3c(Br)c(F)cc4[nH]ncc34)cc2s1)[C@@H]1C[C@@H]1F` [Example 42, (1S,2S)-N-(6-(5-bromo-6-fluoro-1H-indazol-4-yl)benzo[d]thiazol-2-yl)-2-fluorocyclopropane-1-carboxamide], the IC50 lay in the range of 101 to 500 nM.
Take `Cc1c(F)c(C(F)(F)F)c2[nH]ncc2c1-c1ccc2nc(NC(=O)[C@@H]3C[C@@H]3F)cn2c1` [Example 263, (1S,2S)-2-fluoro-N-(6-(6-fluoro-5-methyl-7-(trifluoromethyl)-1H-indazol-4-yl)imidazo[1,2-a]pyridin-2-yl)cyclopropane-1-carboxamide]: the IC50 is under 100 nM.
Under `CP(C)(=O)c1c(F)c(Cl)c(-c2ccc3nc(NC(=O)[C@@H]4C[C@@H]4F)sc3c2)c2cn[nH]c12` [Example 60, (1S,2S)-N-(6-(5-chloro-7-(dimethylphosphoryl)-6-fluoro-1H-indazol-4-yl)benzo[d]thiazol-2-yl)-2-fluorocyclopropane-1-carboxamide] stands over 1000 nM.
Under `CCOc1c(F)c(Cl)c(-c2ccn3nc(NC(=O)[C@@H]4C[C@@H]4F)cc3c2)c2cn[nH]c12` [Example 493, (1S,2S)-N-(5-(5-chloro-7-ethoxy-6-fluoro-1H-indazol-4-yl)pyrazolo[1,5-a]pyridin-2-yl)-2-fluorocyclopropane-1-carboxamide] stands under 100 nM; under `O=C(Nc1cc2cc(-c3c(Cl)c(F)c(Cl)c4[nH]ncc34)ccn2n1)[C@@H]1C[C@@H]1F` [Example 476, (1S,2S)-N-(5-(5,7-dichloro-6-fluoro-1H-indazol-4-yl)pyrazolo[1,5-a]pyridin-2-yl)-2-fluorocyclopropane-1-carboxamide], under 100 nM; under `O=C(Nc1nc2ccc(-c3c(F)c(C(F)(F)F)cc4[nH]ncc34)nc2s1)[C@@H]1C[C@@H]1F` [Example 171, (1S,2S)-2-fluoro-N-(5-(5-fluoro-6-(trifluoromethyl)-1H-indazol-4-yl)thiazolo[5,4-b]pyridin-2-yl)cyclopropane-1-carboxamide], over 1000 nM.
Consider `CN(C)C(=O)c1c(F)cc(-c2ccn3nc(NC(=O)[C@@H]4C[C@@H]4F)cc3c2)c2cn[nH]c12` [Example 604, 6-fluoro-4-(2-((1S,2S)-2-fluorocyclopropane-1-carboxamido)pyrazolo[1,5-a]pyridin-5-yl)-N,N-dimethyl-1H-indazole-7-carboxamide], for which the IC50 was in the range of 101 to 500 nM.
For the molecule `Cc1c(F)c(F)c2[nH]ncc2c1-c1ccc2nc(NC(=O)[C@@H]3C[C@@H]3F)sc2n1` [Example 186, (1S,2S)-N-(5-(6,7-difluoro-5-methyl-1H-indazol-4-yl)thiazolo[5,4-b]pyridin-2-yl)-2-fluorocyclopropane-1-carboxamide], the IC50 is under 100 nM.
Under `CSc1c(F)c(Cl)c(-c2ccc3nc(NC(=O)[C@@H]4C[C@@H]4F)cn3c2)c2cn[nH]c12` [Example 266, (1S,2S)-N-(6-(5-chloro-6-fluoro-7-(methylthio)-1H-indazol-4-yl)imidazo[1,2-a]pyridin-2-yl)-2-fluorocyclopropane-1-carboxamide] stands under 100 nM; under `CCOc1c(F)c(SC)c(-c2ccc3nc(NC(=O)[C@@H]4C[C@@H]4F)cn3c2)c2cn[nH]c12` [Example 310, (1S,2S)-N-(6-(7-ethoxy-6-fluoro-5-(methylthio)-1H-indazol-4-yl)imidazo[1,2-a]pyridin-2-yl)-2-fluorocyclopropane-1-carboxamide], under 100 nM.
With `Cc1c(F)c(C#N)c2[nH]ncc2c1-c1ccn2nc(NC(=O)[C@@H]3C[C@@H]3F)cc2c1` [Example 582, (1S,2S)-N-(5-(7-cyano-6-fluoro-5-methyl-1H-indazol-4-yl)pyrazolo[1,5-a]pyridin-2-yl)-2-fluorocyclopropane-1-carboxamide], the IC50 is under 100 nM.
Under `CCC(C)Nc1c(F)c(Cl)c(-c2ccc3nc(NC(=O)[C@@H]4C[C@@H]4F)cn3c2)c2cn[nH]c12` (stereo partly drawn) [Example 370, (1S,2S)-N-(6-(7-(sec-butylamino)-5-chloro-6-fluoro-1H-indazol-4-yl)imidazo[1,2-a]pyridin-2-yl)-2-fluorocyclopropane-1-carboxamide] stands under 100 nM; under `CSc1c(F)cc(-c2ccc3nc(NC(=O)[C@@H]4C[C@@H]4F)sc3c2)c2cn[nH]c12` [Example 141, (1S,2S)-2-fluoro-N-(6-(6-fluoro-7-(methylthio)-1H-indazol-4-yl)benzo[d]thiazol-2-yl)cyclopropane-1-carboxamide], over 1000 nM; under `COCCSc1c(F)c(Cl)c(-c2ccc3nc(NC(=O)[C@@H]4C[C@@H]4F)sc3c2)c2cn[nH]c12` [Example 71, (1S,2S)-N-(6-(5-chloro-6-fluoro-7-((2-methoxyethyl)thio)-1H-indazol-4-yl)benzo[d]thiazol-2-yl)-2-], under 100 nM.
The result for `CCOc1c(F)c(Cl)c(-c2ccc3nc(NC(=O)[C@@H]4C[C@@H]4F)sc3n2)c2cn[nH]c12` [Example 149, (1S,2S)—N-(5-(5-chloro-7-ethoxy-6-fluoro-1H-indazol-4-yl)thiazolo[5,4-b]pyridin-2-yl)-2-fluorocyclopropane-1-carboxamide] reads under 100 nM; that for `CN1CCN(c2c(F)c(Cl)c(-c3ccn4nc(NC(=O)[C@@H]5C[C@@H]5F)cc4c3)c3cn[nH]c23)CC1` [Example 495, (1S,2S)-N-(5-(5-chloro-6-fluoro-7-(4-methylpiperazin-1-yl)-1H-indazol-4-yl)pyrazolo[1,5-a]pyridin-2-yl)-2-fluorocyclopropane-1-carboxamide], under 100 nM; that for `COC(C)(C)c1c(F)c(Cl)c(-c2ccc3nc(NC(=O)[C@@H]4C[C@@H]4F)cn3c2)c2cn[nH]c12` [Example 395, (1S,2S)-N-(6-(5-chloro-6-fluoro-7-(2-methoxypropan-2-yl)-1H-indazol-4-yl)imidazo[1,2-a]pyridin-2-yl)-2-fluorocyclopropane-1-carboxamide], under 100 nM.
As to `O=C(Nc1cn2cc(-c3c(Cl)c(F)c(Cn4ncnn4)c4[nH]ncc34)ccc2n1)[C@@H]1C[C@@H]1F` [Example 379, (1S,2S)-N-(6-(7-((2H-tetrazol-2-yl)methyl)-5-chloro-6-fluoro-1H-indazol-4-yl)imidazo[1,2-a]pyridin-2-yl)-2-fluorocyclopropane-1-carboxamide], the IC50 is under 100 nM.
The result for `COc1c(F)c(C)c(-c2ccc3nc(NC(=O)[C@@H]4C[C@@H]4F)sc3c2)c2cn[nH]c12` [Example 97, (1S,2S)-2-fluoro-N-(6-(6-fluoro-7-methoxy-5-methyl-1H-indazol-4-yl)benzo[d]thiazol-2-yl)cyclopropanecarboxamide] reads under 100 nM.
